# Key:
# [1] = test system: IL-6 secretion by endothelial cells (HMVEC); experiment: AGE-induced inflammatory response determined by IL-6 ELISA; type: cell-based, human; conditions: 24 hrs
# Protocol: These cell were allowed to reach >90% confluency before being subjected to experimental treatments. G-HSA was from US Biologicals. Tumor necrosis factor α (TNFα) was from R&D Systems.
# HMVEC were treated with control medium or medium containing 100 ng/ml TNFα or 300 μg/ml G-HSA for 24 hrs. All treatments and controls were carried out in serum free media containing 0.2% albumin. Following treatment, cell media were collected and used for an IL-6 ELISA.
# The IL-6 ELISA was carried out using human IL-6 DuoSet ELISA development kit as described by manufacturer (R&D Systems). Mouse anti-human IL-6 was used as the capture antibody (2 μg/ml) and biotinylated goat anti-human IL6 (200 ng/ml) was used as the detection antibody. The culture media were incubated with capture antibody for 2 h at room temperature in 96-well plates. The wells were washed three times with wash buffer (0.05% Tween-20 in phosphate buffered saline (PBS) pH 7.4) followed by incubation with detection antibody for 2 h at room temperature. Following three washes, the wells were incubated with Streptavidin-HRP for 20 min. Color development was read at 450 nm in a microplate reader.
# [2] = test system: MCP-1 secretion by endothelial cells (HAEC and HMVEC); experiment: AGE-induced inflammatory response determined by MCP-1 ELISA; type: cell-based, human; conditions: 100 ng/ml TNFα or 300 μg/ml G-HSA, 24 hrs, vs control medium (FIG. 2)
# Protocol: HAEC and HMVEC (Clonetics) were cultured and subcultured according to manufacturer in growth medium (Clonetics): basal medium containing hEGF, hydrocortisone, VEGF, HFGF-B (with heparin), long R3-IGF-1, ascorbic acid, gentamicin/amphotericin and 5% FBS. These cells were allowed to reach >90% confluency before being subjected to experimental treatments.
# Cells were treated with control medium or medium containing 100 ng/ml TNFα or 300 μg/ml G-HSA for 24 hrs. All treatments and controls were carried out in serum free media containing 0.2% albumin. Following treatment, media were collected and used for the MCP-1 ELISA.
# MCP-1 ELISA was carried out using a DuoSet ELISA Development System for Human MCP-1 as described by the manufacturer (R&D Systems). 2 ug/ml of mouse anti-human MCP-1 was used as the capture antibody and 100 ng/ml biotinylated goat anti-human MCP-1 was used as the detection antibody. The culture media were incubated with capture antibody for 2 h at room temperature in 96-well plates. The wells were washed three times with wash buffer (0.05% Tween-20 in phosphate buffered saline (PBS) pH 7.4) followed by incubation with detection antibody for 2 h at room temperature. Color development was read at 450 nm in a microplate reader.
substance,measurement,setting,value
Tumor necrosis factor α [TNFα],increase in IL-6 secretion,"[1]; 100 ng/ml TNFα or 300 μg/ml G-HSA, HMVEC, vs control medium (FIG. 1)",147%
same,increase in IL-6 secretion by endothelial cells,"[1]; 100 ng/ml TNFα, serum free media containing 0.2% albumin, vs control medium",greater than 2 fold
same,increase in MCP-1 secretion,[2],540%
